Laboratory results as given in patent publication US12570627B2, “Pharmaceutical composition in which production of impurities is suppressed” (Shionogi & Co., Ltd., priority 2020, dated 2026).

How the values were obtained:
Format in all cases: physicochemical
[1] = 90% particle size distribution of bead mill wet-pulverized product, Mastersizer 2000 (Test Example 5); conditions: Mastersizer 2000, SDS aqueous dispersion
Experimental: The obtained slurry was wet-pulverized with a bead mill (DYNO-MILL nanodisperser research lab type, Willy A. Bachofen AG) and then filtered to obtain an anhydrate crystal (90% particle size distribution: 2.791 μm) of the compound represented by Formula (I). The 90% particle size distribution was measured by the method described in Test Example 5.
A 90% particle size distribution was measured according to the following method and conditions. • Measuring instrument: particle size distribution measuring apparatus (Mastersizer 2000, Malvern Panalytical Ltd) • Dispersion solvent: 0.1 g of sodium dodecyl sulfate (SDS) was dissolved in 1 L of water • Rotation speed: 2500 rpm • Ultrasound: 50% • Slurry concentration: adjusted between 10 to 20%

[2] = Stability testing of wet-kneaded vs untreated dry-pulverized product (Test Example 7)
Experimental: A standard sample of 5 ng/mL (corresponding to 5 ppm with respect to the sample solution) of the compound represented by Formula (ITI) was prepared by the following method. Step 1: About 20 mg of the compound represented by Formula (III) was weighed precisely, and a mixed solution of acetonitrile and water (4:1) was added to dissolve the compound to make exactly 100 mL. Step 2: One milliliter of the solution of Step 1 was accurately taken, and a mixed solution of acetonitrile and water (4:1) was added to make exactly 100 mL. Step 3: One milliliter of the solution of Step 2 was accurately taken, and a mixed solution of acetonitrile and water (4:1) was added to make exactly 100 mL. Step 4: Five milliliters of the solution of […] was accurately taken, and a mixed solution of acetonitrile and water (4:1) was added to make exactly 20 mL, thereby obtaining a standard solution. Step 1: A sample in an amount corresponding to 50 mg of the compound represented by Formula (I) or the like was added to a 50 mL volumetric flask. Step 2: To Step 1 was added 10 mL of water, and the mixture was irradiated with ultrasonic waves for 10 minutes to disintegrate the sample completely. The ultrasonic irradiation time was extended as necessary. Step 3: To Step 2 was added 25 mL of acetonitrile, and the mixture was irradiated with ultrasonic waves for 30 minutes. Step 4: After cooling, acetonitrile was added to make exactly 50 mL, a part of the liquid was centrifuged at 13000 rpm for 10 minutes, and the supernatant was used as a sample solution. An amount of the compound represented by Formula (III) was measured with a liquid chromatograph according to the following method and conditions. • Measuring instrument: LC/MS/MS (PM No. AES676) manufactured by Agilent Technologies, Inc. • Column: L-column 24.6×150 mm, 3 μm • Column temperature: constant temperature at near 35° C. • Mobile phase A: 10 mM ammonium acetate • Mobile phase B: acetonitrile for liquid chromatography • Feed of mobile phase: The mixing ratio of mobile phase A and mobile phase B was changed as shown in Table 14 to control concentration gradient. • Post runtime: 5 minutes • Flow rate: 0.5 mL/min (retention time of S202AA: about 9 minutes) • Injection amount: 5 μL • Sample cooler temperature: constant temperature at near 10° C. • Needle washing solution: acetonitrile for liquid chromatography • Ionization method: ESI • Scan type: MEM • Polarity: positive • Precursor ion: m/z=187.2 • Product ion: m/z=64.9 • Fragmentor: 120 • Collision energy: 33 • Capillary: 4000 V • Gas temperature: 350° C. • Gas flow rate: 12 L/min • Nebulizer: 40 psi • MS uptake time: 0 to 12 minutes (Calculation Formula) Content (ppm) of compound represented by Formula(III)=MS×P/100×(100−WS)/100×AT/AS×1/50×1/80000×1000000 (Mathematical formula 6) • MS: Weighing amount (mg) of compound represented by Formula (III) • P: Purity (%) of compound represented by Formula (III) • WS: Moisture (%) of compound represented by Formula (JII) • AS: Peak area of compound represented by Formula (III) obtained from standard solution • AT: Peak area of compound represented by Formula (III) obtained from sample solution (Results)

[3] = Stability testing, study of stabilizer / blending property test (Test Example 9)
Experimental: A blending property test was performed on the compound represented by Formula (I) or the like and an additive, and the amount of the compound represented by Formula (III) in the product stored over time was evaluated. The sample and additive used in Reference Example 4 were weighed and mixed uniformly with a mortar and a pestle. An appropriate amount of purified water was added to the mixture, and wet kneading was performed with a pestle. The resulting granulated product was sieved with a 20-mesh wire mesh, and dried at an aeration temperature of 60° C. for 30 minutes in an aeration dryer (TH-80, SATAKE CHEMICAL EQUIPMENT MFG., LTD.). Thereafter, the resulting product was further sieved with a 20-mesh wire mesh to obtain samples of Examples 10 to 14.
The samples of Examples 10 to 14 were subjected to a stability testing under a condition of 60° C. glass bottle closed (referred to as 60° C. closed in Table 17) and 40° C. glass bottle closed (referred to as 40° C. closed in Table 17) to evaluate the content of the compound represented by Formula (III).
The content of the compound represented by Formula (II) was confirmed in the same manner as in Test Example 7.

[4] = 40° C. glass bottle closed, 1 month
[5] = 40° C. glass bottle closed, 2 weeks
[6] = 40° C. glass bottle closed, 3 months
[7] = 60° C. glass bottle closed, 2 weeks

90% particle size distribution [1] [μm] | Content of compound represented by Formula (III), 40° C. glass bottle closed 1M [2, 4] [ppm] | Content of compound represented by Formula (III), 40° C. glass bottle closed 2W [2, 5] [ppm] | Content of compound represented by Formula (III), 40° C. glass bottle closed 3M [2, 6] [ppm] | Content of compound represented by Formula (III), 40° C./75% RH glass bottle opened 1M ([2]; 40° C./75% RH glass bottle opened, 1 month) [ppm] | Content of compound represented by Formula (III), 40° C./75% RH glass bottle opened 2W ([2]; 40° C./75% RH glass bottle opened, 2 weeks) [ppm] | Content of compound represented by Formula (III), 40° C./75% RH glass bottle opened 3M ([2]; 40° C./75% RH glass bottle opened, 3 months) [ppm] | Content of compound represented by Formula (III), 60° C. glass bottle closed 2W [2, 7] [ppm] | Content of compound represented by Formula (III), Initial ([2]; start of test) [ppm] | Amount of compound represented by Formula (III), 40° C. closed 1M [3, 4] [ppm] | Amount of compound represented by Formula (III), 40° C. closed 2W [3, 5] [ppm] | Amount of compound represented by Formula (III), 40° C. closed 3M [3, 6] [ppm] | Amount of compound represented by Formula (III), 60° C. closed 2W [3, 7] [ppm] | Amount of compound represented by Formula (III), Initial ([3]; start of test) [ppm] | Compound
2.791 |  |  |  |  |  |  |  |  |  |  |  |  |  | C[C@@H](Cn1c(=O)[nH]/c(=N\c2ccc(Oc3ccccn3)cc2)n(Cc2ccc(Cl)cc2)c1=O)C(=O)O [Example 7]
 | 17.2 | 10.7 | 23.9 | 13.1 | 9.4 | 19.7 | 10.9 | 3.0 | 17.2 | 10.7 | 23.9 | 10.9 | 3.0 | C[C@@H](Cn1c(=O)[nH]/c(=N\c2ccc(Oc3ccccn3)cc2)n(Cc2ccc(Cl)cc2)c1=O)C(=O)O [Reference Example 4]
